Structures are written as SMILES. Active and inactive are the calls of the source. No rule for the calls is given here.

Holding throughout (assay): CXCR6 receptor antagonists, dose response, cell-based, beta-arrestin, DiscoveRx, APJ panel, uHTS hits (AID 624129)
Test [1] has as its target Apelin receptor (Homo sapiens) (UniProt P35414). Conditions: CXCR6 beta-arrestin (DiscoveRx) antagonist cell assay, APJ.
The target of test [2] is C-X-C chemokine receptor type 6 (Homo sapiens) (UniProt O00574). Conditions: CXCR6 beta-arrestin (DiscoveRx) antagonist cell assay; for inhibition: CXCR6, run 1, dose range 2, at 80 µM (top of the series).
For test [3], the target named is C-C chemokine receptor type 6 (Homo sapiens) (UniProt P51684). The conditions noted are these: CXCR6 beta-arrestin (DiscoveRx) antagonist cell assay.
For test [4], the target named is Beta-galactosidase (Escherichia coli) (UniProt Q8VNN2). Conditions: CXCR6 beta-arrestin (DiscoveRx) antagonist cell assay, b-galactosidase.
Where [5] appears, read: dose range 1, mean IC50 across replicates.
[6] abbreviates: CXCR6, dose range 1, mean IC50 across replicates.
Setting [7] is: CCR6, dose range 1, mean IC50 across replicates.

Beta-galactosidase (Escherichia coli), sequence (Q8VNN2 whole entry, looked up): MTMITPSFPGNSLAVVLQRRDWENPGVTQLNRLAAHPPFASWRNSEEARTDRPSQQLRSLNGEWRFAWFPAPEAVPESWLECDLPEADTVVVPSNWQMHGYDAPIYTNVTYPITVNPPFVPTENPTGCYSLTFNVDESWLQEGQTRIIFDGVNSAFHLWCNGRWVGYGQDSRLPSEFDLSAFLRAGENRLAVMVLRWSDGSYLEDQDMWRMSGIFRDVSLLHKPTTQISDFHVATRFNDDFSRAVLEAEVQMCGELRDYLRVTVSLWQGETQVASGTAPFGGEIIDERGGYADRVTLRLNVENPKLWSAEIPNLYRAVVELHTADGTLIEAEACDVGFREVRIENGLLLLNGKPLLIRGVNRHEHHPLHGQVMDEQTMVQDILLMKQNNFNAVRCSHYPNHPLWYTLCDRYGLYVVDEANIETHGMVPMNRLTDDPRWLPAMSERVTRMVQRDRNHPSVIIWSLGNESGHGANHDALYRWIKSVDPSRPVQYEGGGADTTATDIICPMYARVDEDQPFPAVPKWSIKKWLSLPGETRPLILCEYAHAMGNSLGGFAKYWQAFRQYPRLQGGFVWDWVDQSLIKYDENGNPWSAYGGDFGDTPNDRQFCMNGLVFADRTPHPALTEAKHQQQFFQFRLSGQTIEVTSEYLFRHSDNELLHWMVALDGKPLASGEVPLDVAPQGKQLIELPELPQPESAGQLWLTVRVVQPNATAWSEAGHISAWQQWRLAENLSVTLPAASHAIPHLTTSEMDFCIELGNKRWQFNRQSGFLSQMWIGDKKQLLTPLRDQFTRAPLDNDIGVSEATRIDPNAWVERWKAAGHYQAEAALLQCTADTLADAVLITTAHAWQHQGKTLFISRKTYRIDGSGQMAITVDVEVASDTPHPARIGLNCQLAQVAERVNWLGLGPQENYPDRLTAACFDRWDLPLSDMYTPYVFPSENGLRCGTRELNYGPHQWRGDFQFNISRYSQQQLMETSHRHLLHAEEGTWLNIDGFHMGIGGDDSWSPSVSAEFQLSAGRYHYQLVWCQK
C-X-C chemokine receptor type 6 (Homo sapiens), sequence (O00574 whole entry, looked up): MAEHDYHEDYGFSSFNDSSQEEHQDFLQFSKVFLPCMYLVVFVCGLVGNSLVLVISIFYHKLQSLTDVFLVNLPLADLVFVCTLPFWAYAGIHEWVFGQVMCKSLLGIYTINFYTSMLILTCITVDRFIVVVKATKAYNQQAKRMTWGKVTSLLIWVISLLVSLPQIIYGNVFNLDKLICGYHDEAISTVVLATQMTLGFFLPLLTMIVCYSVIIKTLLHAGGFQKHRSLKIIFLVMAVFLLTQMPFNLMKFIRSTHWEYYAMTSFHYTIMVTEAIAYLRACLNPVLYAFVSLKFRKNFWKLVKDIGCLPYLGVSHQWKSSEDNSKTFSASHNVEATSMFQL

One may read the IC50 as the concentration at which inhibition is half-maximal. Take `O=C(N/N=C(\c1ccccc1)c1cccnc1)c1cccc(F)c1`: the IC50 in test [1] (dose range 1) is 4.18 µM; in test [1] (setting [5]) it was 4.46 µM; in test [1] (run 2, dose range 1), 5.15 µM; in test [1] (run 3, dose range 1) it was 4.05 µM; in test [2] (CXCR6, dose range 1), 4.5 µM; in test [2] (setting [6]), 4.01 µM. For the same molecule, the IC50 in test [2] (CXCR6, run 1, dose range 2) is 3.07 µM; in test [2] (CXCR6, run 2, dose range 1), 5.13 µM; in test [2] (CXCR6, run 2, dose range 2), 3.34 µM; in test [3] (CCR6, dose range 1), 4.35 µM; in test [3] (setting [7]) it was 4.64 µM; in test [3] (CCR6, run 2, dose range 1), 4.93 µM. The IC50 in test [4] (dose range 1) is > 80 µM (inactive); in test [4] (setting [5]), > 80 µM.
In the case of `Cc1ccc(NC(=S)N/N=C/c2ccc([N+](=O)[O-])s2)cc1`, the IC50 in test [1] (dose range 1) was 9.42 µM; in test [1] (setting [5]), 19.2 µM; in test [1] (run 2, dose range 1), 18.1 µM; in test [1] (run 3, dose range 1) it was 30 µM; in test [2] (CXCR6, dose range 1) it was 9.1 µM; in test [2] (setting [6]), 7.46 µM. Further, the IC50 was 5.64 µM in test [2] (CXCR6, run 1, dose range 2); 8.89 µM in test [2] (CXCR6, run 2, dose range 1); 6.21 µM in test [2] (CXCR6, run 2, dose range 2); 3.88 µM in test [3] (CCR6, dose range 1); 5.06 µM in test [3] (setting [7]); 6.24 µM in test [3] (CCR6, run 2, dose range 1). In addition, the IC50 in test [4] (dose range 1) and in test [4] (setting [5]) was 31.3 µM in each case.
In general, inhibition refers to the relative decrease from the control value, in per cent. For the molecule `CCOc1ccc(NCC(=O)c2ccc(C)cc2)cc1`, the IC50 in test [1] (dose range 1) is 20.7 µM; in test [1] (setting [5]), 24.3 µM; in test [1] (run 2, dose range 1), 27.9 µM; in test [1] (run 3, dose range 1) it was > 80 µM; in test [2] (setting [6]), 20.7 µM; in test [2] (CXCR6, run 2, dose range 1), > 80 µM. Besides, the IC50 is 14.2 µM in test [3] (CCR6, dose range 1); 16.3 µM in test [3] (setting [7]); 18.3 µM in test [3] (CCR6, run 2, dose range 1); > 80 µM (inactive) in test [4] (dose range 1); > 80 µM in test [4] (setting [5]). Further, in test [2] (CXCR6, dose range 1), the IC50 result was “inactive”. In addition, the inhibition in test [2] is 38.7%.
On to `CC(C)N=C1CCCC1C(=S)SSC(=S)C1CCCC1=NC(C)C` (configuration not stated), for which the IC50 in test [1] (dose range 1) was 13.8 µM; in test [1] (setting [5]), 23.7 µM; in test [1] (run 2, dose range 1), 21.8 µM; in test [1] (run 3, dose range 1), 35.4 µM; in test [2] (setting [6]), 11.4 µM; in test [2] (CXCR6, run 1, dose range 2), 4.08 µM. In addition, the IC50 in test [2] (CXCR6, run 2, dose range 1) is 17.8 µM; in test [2] (CXCR6, run 2, dose range 2), 4.99 µM; in test [3] (CCR6, dose range 1), 9.02 µM; in test [3] (setting [7]) it was 10.2 µM; in test [3] (CCR6, run 2, dose range 1), 11.4 µM; in test [4] (dose range 1), > 80 µM (inactive). Besides, in test [4] (setting [5]), the IC50 was > 80 µM. For the same molecule, the IC50 result in test [2] (CXCR6, dose range 1) is “inactive”.
Regarding `CNc1cc(Cl)c2nonc2c1[N+](=O)[O-]`, the IC50 was 5.88 µM in test [1] (dose range 1); 8.61 µM in test [1] (setting [5]); 4.89 µM in test [1] (run 2, dose range 1); 15.1 µM in test [1] (run 3, dose range 1); 3.61 µM in test [2] (CXCR6, dose range 1); 3.39 µM in test [2] (setting [6]). Further, the 50% inhibitory concentration (IC50) in test [2] (CXCR6, run 1, dose range 2) is 3.02 µM; in test [2] (CXCR6, run 2, dose range 1), 4.12 µM; in test [2] (CXCR6, run 2, dose range 2), 2.83 µM; in test [3] (CCR6, dose range 1) it was 3.13 µM; in test [3] (setting [7]), 3.29 µM; in test [3] (CCR6, run 2, dose range 1), 3.46 µM. The IC50 in test [4] (dose range 1) is > 80 µM (inactive); in test [4] (setting [5]) it was > 80 µM.
In the case of `Cc1ccc(C(=O)Sc2cccccc2=O)cc1`, the IC50 was 1.05 µM in test [1] (dose range 1); 2.38 µM in test [1] (setting [5]); 4.56 µM in test [1] (run 2, dose range 1); 1.52 µM in test [1] (run 3, dose range 1); 1.08 µM in test [2] (CXCR6, dose range 1); 1.44 µM in test [2] (setting [6]). Besides, the half-maximal inhibitory concentration (IC50) is 1.79 µM in test [2] (CXCR6, run 2, dose range 1); 1.18 µM in test [3] (CCR6, dose range 1); 1.55 µM in test [3] (setting [7]); 1.92 µM in test [3] (CCR6, run 2, dose range 1); > 80 µM (inactive) in test [4] (dose range 1); > 80 µM in test [4] (setting [5]). In addition, the inhibition in test [2] turned out to be 42.3%.
In the case of `COc1ccc(C(=O)/C=C/C(=O)N(CC(=O)NC2CCCCC2)CC2CCCO2)c(O)c1` (configuration not stated), the IC50 was > 80 µM in test [1] (setting [5]); > 80 µM in test [1] (run 2, dose range 1); > 80 µM in test [1] (run 3, dose range 1); > 80 µM (inactive) in test [2] (CXCR6, dose range 1); > 80 µM in test [2] (setting [6]); > 80 µM in test [2] (CXCR6, run 2, dose range 1). Further, the IC50 in test [3] (setting [7]) was > 80 µM; in test [3] (CCR6, run 2, dose range 1), > 80 µM; in test [4] (dose range 1), > 80 µM (inactive); in test [4] (setting [5]), > 80 µM. The inhibition in test [2] was -34.5%.
`Fc1ccc(Sc2nc(-c3ccccc3)nnc2C(F)(F)F)cc1`: the IC50 result in test [1] (dose range 1) was “inactive”; in test [2] (CXCR6, dose range 1) it was “inactive”. The half-maximal inhibitory concentration (IC50) in test [1] (setting [5]) was 64.5 µM; in test [1] (run 2, dose range 1) it was 57.4 µM; in test [1] (run 3, dose range 1), > 80 µM; in test [2] (setting [6]), 12 µM; in test [2] (CXCR6, run 1, dose range 2), 5.63 µM; in test [2] (CXCR6, run 2, dose range 1), 27.7 µM. Besides, the IC50 in test [2] (CXCR6, run 2, dose range 2) is 8.28 µM; in test [3] (CCR6, dose range 1) it was 7.47 µM; in test [3] (setting [7]), 7.42 µM; in test [3] (CCR6, run 2, dose range 1), 7.37 µM; in test [4] (dose range 1) it was > 80 µM (inactive); in test [4] (setting [5]) it was > 80 µM.

These data come from PubChem BioAssay AID624129 (Sanford-Burnham Center for Chemical Genomics, 2012).
